Results from patent US4278675A, “Bronchodilating process” (Bristol-Myers Company, priority 1979, dated 1981).
≈ marks a conversion by molar mass, not a printed value. Where two headings read alike, the source gives them in different places.

Assays:
[1] = system: Arterial blood pressure (ABP); assay: In vivo hypotensive activity: arterial blood pressure (ABP) in anesthetized guinea pig; conditions: intravenous; for ABP ED20 (dose which reduces arterial blood pressure by 20%): anesthetized guinea pig, hypotensive activity; for Ratio ABP/ITP (hypotensive ED20/bronchodilating ED50): guinea pig, larger ratio = greater separation of bronchodilator activity and hypotensive side effect
Experimental: (§1) The trachea of anesthetized guinea pig was cannulated and the ITP recorded on a polygraph under artificial ventilation. Arterial blood pressure (ABP; reflecting hypotensive activity) was also measured during the experiment. Either intravenous or intraduodenal routes of administration are used. […] The ratio of hypotensive ED20 /bronchodilating ED50 reflects an assessment of the separation of desirable bronchodilator activity from undesirable cardiovascular (hypotensive) effect in the compounds. The larger the ABP/ITP ratio, the greater separation of bronchodilator activity and hypotensive side effect.

[2] = system: intratracheal pressure (ITP) in the guinea pig; assay: In vivo bronchodilator activity: decrease in intratracheal pressure (ITP) in anesthetized guinea pig; conditions: Cavia porcellus, intravenous, read-out: ITP ED50 (dose resulting in a 50% decrease in intratracheal pressure)
Experimental: as §1

[3] = system: Tracheal chains of guinea pig; assay: In vitro bronchodilator activity, tracheal chains of guinea pig (Magnus method); assay type: cell-based; conditions: Cavia porcellus, relative to 0.1 mcg./ml. isoproterenol, read-out: EC50 (concentration producing a relaxation which is 50% of the maximum response to 0.1 mcg./ml. of isoproterenol)
Experimental: Tracheal chains of guinea pig were prepared by the method of A. Akcasu, Arch. Int. Pharmcodyn. […] The response to each test compound was recorded by the Magnus method and expressed as a percentage of the maximum response obtained with 0.1 mcg./ml. of isoproterenol prior to each experiment.

[4] = prior art (U.S. Pat. No. 3,930,005), cited from earlier work

SMILES	ABP ED20 (dose which reduces arterial blood pressure by 20%) [1] [mg/kg]	ED50 [2] [mg/kg]	Ratio ABP/ITP (hypotensive ED20/bronchodilating ED50) [1]	EC50 [3] [µg/mL]	anti-inflammatory activity ([4]; listed as 9-cyclohexyl-9H-adenine)	anti-inflammatory activity ([4]; listed as drawing 2)
Cn1c(=O)c2[nH]cnc2n(C)c1=O [Aminophylline, reference compound]	1.4	–	–	–	–	–
CCCOc1nc(N)c2ncn(Cc3ccccc3)c2n1 [9-Benzyl-2-n-propoxy-9H-adenine]	1.7	0.83	2.0	0.34 (≈ 1.2 µM)	–	–
Nc1ncnc2c1ncn2C1CCCCC1 [9-Cyclohexyl-9H-adenine, 9-cyclohexyl-9H-adenine]	> 3	0.24	> 1.2	0.91 (≈ 4.19 µM)	no activity or activity of no practical value	relatively inactive
